The subject of this assay is allergic bronchoconstriction in Brown Norway rats. Kind of assay: Allergic asthma model: OVA-sensitized and challenged Brown Norway rats, whole body plethysmography (Penh). The format is in vivo, Brown Norway rat. The protocol: An animal model of allergic asthma was developed by sensitizing Brown Norway rats (BNR) to ovalbumin (OVA) and subsequently challenging them with the same allergen.
Male Brown Norway rats (BN/SsdNhsd) 150-199 g were used. A stock solution prepared containing the following ingredients: 10 mL 0.9% of sterile saline solution, 100 μL of ovalbumin solution 1 mg/mL in saline, 1.5 g Al(OH)3 and 10 μL Bordetella Pertussis purified toxin stock solution 500 ng/mL. The solution is mixed thoroughly but not vortexed and then injected intraperitoneally into each rat using a 1 cc syringe and 25-gauge needle.
The rat is placed in the whole body plethysmograph/chamber for approximately 30 minutes in order to calm down. Baseline pulmonary function is recorded for 30 minutes. A solution of ovalbumin 5% in saline is aerosolized for 5 minutes using an ultrasonic nebulizer from Buxco®. The pulmonary function is recorded for 6 hrs during which the effects of different treatments on airway resistance were evaluated.
A whole body plethysmograph from Buxco® was used to monitor pulmonary function and the effect of perfluorocarbon fluids (PFCs) and/or different gas mixture containing CO2 on constricted airways. The plethysmograph consists of a chamber with a pressure transducer along with humidity and temperature probes connected to an amplifier Max II, which is connected to a personal computer and managed by BioSystem XA software. In addition, there are two flow regulators to pump the air or CO2 containing gas mixture in and out of the chamber, and an ultrasonic nebulizer. The primary advantage of the Buxco® methodology is that it is non-invasive and minimizes stress, with animals allowed to freely roam within the measuring chamber. The evaluation of bronchoconstriction was achieved using the Penh (enhanced pause) (an index of airway obstruction) [see Hamelmann et al., (1997) Noninvasive measurement of airway responsiveness in allergic mice using barometric plethysmography, Am J Respir Crit Care Med […] September; 156(3 Pt 1):766-775, incorporated herein by reference]. […]
A gas mixture containing air and CO2 (2, 5, 8, 10 and 20%, respectively, by volume) was delivered to the plethysmograph chamber as described above. The gas was monitored (O2 and CO2) using a gas analyzer from Buxco® and pulmonary function was recorded during and after cessation of the treatment. All treatments were delivered during the late phase response to OVA challenge. […]
FC-43 is placed in the Arcotech dual chamber jet nebulizer and driven by a gas mixture containing air and 5% CO2 by volume. The concentration of FC-43 was determined as outlined above and averaged about 39 mg/liter. The treatment was delivered for 10 minutes. Two minutes after cessation of the first treatment, salbutamol (1 mg/ml) was delivered for 5 minutes using an ultrasonic nebulizer.
FC-77 is placed in the Arcotech dual chamber jet nebulizer and driven by a gas mixture containing air and 5% CO2 by volume. The treatment was delivered for 10 minutes. For technical reasons pulmonary function was evaluated immediately after cessation of the treatment.
Perfluorodecalin is placed in the Arcotech dual chamber jet nebulizer and driven by a gas mixture containing air and 5% CO2 by volume. The treatment was delivered for 10 minutes. For technical reasons pulmonary function was evaluated immediately after cessation of the treatment.
Perfluorooctylbromide is placed in the Arcotech dual chamber jet nebulizer and driven by a gas mixture containing air and 20% CO2 by volume. The treatment was delivered for 10 minutes. For technical reasons pulmonary function was evaluated immediately after cessation of the treatment.
A mixture of approximately equal amounts of FC-43 and FC-77 was placed in the Arcotech dual chamber jet nebulizer and driven by a gas mixture containing air and 5% CO2 by volume. The treatment was delivered for 10 minutes. […]

Turning to `CC(C)(C)NCC(O)c1ccc(O)c(CO)c1` (stereo not shown) [salbutamol], under “salbutamol 1 mg/ml alone”, the “drop in Penh” value was “approximately 60%” and the “duration of drop in Penh before returning to pretreatment levels” value is 5 min. For the same compound, the duration of response result (salbutamol 1 mg/ml given after PFC/CO2 treatment) is “never returned to pre-treatment levels”. Also, the “drop in Penh (response)” value (salbutamol 1 mg/ml given after PFC/CO2 treatment (FC-43 with 5% CO2 in air, 10 minutes)) is listed as “approximately 70%”.

Turning to `O=C=O` [CO2, carbon dioxide], the “bronchodilation by CO2 alone” value (2%, 5%, 8%, 10% and 20% CO2 by volume, balance air) is given as “acts as a bronchodilator”. Also, under “20% CO2 in air alone”, the duration of bronchodilation result is given as “approximately 2 minutes”. Besides, the “relaxation of constricted airways (percent reduction of bronchoconstriction), comparison between CO2 concentrations” value (20% and 8% CO2 compared with 2% and 5% CO2 in air, groups of rats) is given as “significantly (P<0.05) higher”.
